Experimental data: patent US20230391772A1, “METHODS AND COMPOSITIONS FOR TARGETED PROTEIN DEGRADATION” (Ranok Therapeutics (Hangzhou) Co. Ltd., priority 2020, published 2023)

Tests used:
[1] = target: T1, HSP90a protein (Homo sapiens, UniProt P07900); assay: HSP90α-binding fluorescent polarization (FP) assay, BODIPY-labeled RNK04010 probe; details: FP competition with RNK04010 (BODIPY-labeled), 5 nM, 300 min at 25° C.
T1 construct: purchased BPS Bioscience 50298
Description: HSP90α-Binding Fluorescent Polarization (FP) Assay
Binding of test compounds to HSP90a protein was measured by fluorescent polarization (FP) using the HSP90a (N-terminal) Assay Kit (BPS Bioscience, #50298), following the manufacturer's instructions, except as noted. Fluorescently labeled HSP90-binding compounds, either the provided FITC-geldanamycin (5 nM final concentration) or RNK04010, a triazolone-based HSP90 binding small molecule labeled with BODIPY through a piperizine-phenyl linker (5 nM final concentration) were employed. A 2.5-fold serial dilution of each test compound ranging from 20 μM to 5.2 nM was assayed for binding to HSP90a. After the final step of adding HSP90a protein to each assay well, plates were mixed by brief shaking, incubated at 25° C. for 120 min for FITC-geldanamycin or 300 min for RNK04010, and fluorescence was measured using a PerkinElmer EnVision Plate Reader.

[2] = system: MIA PaCa-2 human pancreatic carcinoma; assay: MIA PaCa-2 CCK-8 proliferation assay; type: cell-based; details: Homo sapiens, MIA PaCa-2, 72 h, MIA PaCa-2 cells
Description: The following cancer cell lines were employed: BT-474 human breast carcinoma (ATCC, #HTB-20); MIA PaCa-2 human pancreatic carcinoma [2 copies KRAS(G12C)](ATCC, #CRL-1420); NCI-H23 human non-small cell lung cancer [1 copy KRAS(G12C)](ATCC, #CRL-5800); NCI-H358 human non-small cell lung cancer [1 copy KRAS(G12C)](ATCC, #CRL-5807); LU65A human lung carcinoma (Pharmaron, Beijing, China). Cell lines were cultured essentially according to ATCC and Pharmaron recommendations.
Cancer Cell Line Proliferation (CCK-8) Assays
3-fold serial dilutions of each test compound were prepared ranging from 20 μM to 1.02 nM.
% Inhibition=100−(D−B)/(S−B)*100%. • S: Absorbance of cells treated with DMSO • D: Absorbance of compound-treated cells • B: Absorbance of medium with DMSO without cells

[3] = target: KRAS(G12C) (Homo sapiens, UniProt P01116, G12C); assay: KRAS(G12C)/SOS1 homogeneous time-resolved fluorescence (HTRF) assay; parameters: purchased Cisbio 63ADK000CB16PEG; details: absence of GTP, 4° C. for 3 hr, read-out: KRAS (G12C) binding
Description: KRAS(G12C)/SOS1 Homogeneous Time-Resolved Fluorescence (HTRF) Assay
Binding of test compounds to KRAS(G12C) protein, which in turn blocks KRAS(G12C) interaction with the SOS1 protein, was measured in the absences of GTP by homogeneous time-resolved fluorescence (HTRF) using the KRAS-G12C/SOS1 Binding Assay Kit (Cisbio, #63ADK000CB16PEG), following the manufacturer's instructions, except as noted. 3-fold serial dilutions of each test compound were prepared ranging from […] to 1.02 nM. The test compound was mixed and incubated with reaction components, incubated in a sealed plate at 4° C. for 3 hr and fluorescence was measured using a PerkinElmer Envision plate reader.

Sequence of KRAS(G12C) (P01116 1-188 isoform P01116-2 G12C): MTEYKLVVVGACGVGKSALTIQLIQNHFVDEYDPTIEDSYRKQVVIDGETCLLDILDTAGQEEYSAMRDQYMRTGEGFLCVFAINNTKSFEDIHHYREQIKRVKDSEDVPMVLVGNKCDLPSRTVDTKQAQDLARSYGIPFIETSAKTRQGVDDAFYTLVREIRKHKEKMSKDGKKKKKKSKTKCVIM

Compound | IC50 [1] [nM] | EC50 [2] [nM] | IC50 [3] [nM]
C=CC(=O)N1CCN(c2nc(OCC3CN(C(=O)C4CCN(Cc5ccc(-n6c(O)nnc6-c6cc(C(C)C)c(O)cc6O)cc5)CC4)C3)nc3c2CCN(c2cccc4cccc(Cl)c24)C3)C[C@@H]1CC#N [Compound 188, (S)-2-(1-acryloyl-4-(7-(8-chloronaphthalen-1-yl)-2-((1-(1-(4-(3-(2,4-dihydroxy-5-isopropylphenyl)-5-hydroxy-4H-1,2,4-triazol-4-yl)benzyl)piperidine-4-carbonyl)azetidin-3-yl)methoxy)-5,6,7,8-tetrahydropyrido[3,4-d]pyrimidin-4-yl)piperazin-2-yl)acetonitrile, trifluoroacetic acid] | < 100 | 100 to 1000 | > 1000
C=CC(=O)N1CCN(c2nc(OC[C@@H]3CCN3C(=O)C3CCN(Cc4ccc(-n5c(O)nnc5-c5cc(C(C)C)c(O)cc5O)cc4)CC3)nc3c2CCN(c2cccc4cccc(Cl)c24)C3)C[C@@H]1CC#N [Compound 189, 2-((S)-1-acryloyl-4-(7-(8-chloronaphthalen-1-yl)-2-(((S)-1-(1-(4-(3-(2,4-dihydroxy-5-isopropylphenyl)-5-hydroxy-4H-1,2,4-triazol-4-yl)benzyl)piperidine-4-carbonyl)azetidin-2-yl)methoxy)-5,6,7,8-tetrahydropyrido[3,4-d]pyrimidin-4-yl)piperazin-2-yl)acetonitrile, trifluoroacetic acid] | < 100 | > 1000 | > 1000
C=CC(=O)N1CCN(c2nc(OC[C@@H]3C[C@@H](NC(=O)C4CCN(Cc5ccc(-n6c(C(N)=O)nnc6-c6cc(C(C)C)c(O)cc6O)cc5)CC4)CN3C)nc3c2CCN(c2cccc4cccc(Cl)c24)C3)C[C@@H]1CC#N [Compound 194, N-((3R,5S)-5-(((4-((S)-4-acryloyl-3-(cyanomethyl)piperazin-1-yl)-7-(8-chloronaphthalen-1-yl)-5,6,7,8-tetrahydropyrido[3,4-d]pyrimidin-2-yl)oxy)methyl)-1-methylpyrrolidin-3-yl)-1-(4-(3-carbamoyl-5-(2,4-dihydroxy-5-isopropylphenyl)-4H-1,2,4-triazol-4-yl)benzyl)piperidine-4-carboxamide] | < 100 | 100 to 1000 | 100 to 1000
C=CC(=O)N1CCN(c2nc(OCCN3CCN(C(=O)c4ccc(-n5c(O)nnc5-c5cc(C(C)C)c(O)cc5O)cc4)CC3)nc3c2CCN(c2cccc4cccc(Cl)c24)C3)C[C@@H]1CC#N [Compound 195, (S)-2-(1-acryloyl-4-(7-(8-chloronaphthalen-1-yl)-2-(2-(4-(4-(3-(2,4-dihydroxy-5-isopropylphenyl)-5-hydroxy-4H-1,2,4-triazol-4-yl)benzoyl)piperazin-1-yl)ethoxy)-5,6,7,8-tetrahydropyrido[3,4-d]pyrimidin-4-yl)piperazin-2-yl)acetonitrile, trifluoroacetic acid] | < 100 | > 1000 | > 1000
C=CC(=O)N1CCN(c2nc(OC[C@@H]3C[C@@H](NC(=O)c4ccc(-n5c(O)nnc5-c5cc(C(C)C)c(O)cc5O)cc4)CN3C)nc3c2CCN(c2cccc4cccc(Cl)c24)C3)C[C@@H]1CC#N [Compound 196, N-((3R,5S)-5-(((4-((S)-4-acryloyl-3-(cyanomethyl)piperazin-1-yl)-7-(8-chloronaphthalen-1-yl)-5,6,7,8-tetrahydropyrido[3,4-d]pyrimidin-2-yl)oxy)methyl)-1-methylpyrrolidin-3-yl)-4-(3-(2,4-dihydroxy-5-isopropylphenyl)-5-hydroxy-4H-1,2,4-triazol-4-yl)benzamide, trifluoroacetic acid] | < 100 | > 1000 | 100 to 1000
C=CC(=O)N1CCN(c2nc(OC[C@@H]3CN(C(=O)C4CCN(Cc5ccc(-n6c(C(N)=O)nnc6-c6cc(C(C)C)c(O)cc6O)cc5)CC4)CCN3C)nc3c2CCN(c2cccc4cccc(Cl)c24)C3)C[C@@H]1CC#N [Compound 197, 4-(4-((4-((S)-3-(((4-((S)-4-acryloyl-3-(cyanomethyl)piperazin-1-yl)-7-(8-chloronaphthalen-1-yl)-5,6,7,8-tetrahydropyrido[3,4-d]pyrimidin-2-yl)oxy)methyl)-4-methylpiperazine-1-carbonyl)piperidin-1-yl)methyl)phenyl)-5-(2,4-dihydroxy-5-isopropylphenyl)-4H-1,2,4-triazole-3-carboxamide, trifluoroacetic acid] | < 100 | > 1000 | > 1000
C=CC(=O)N1CCN(c2nc(OC[C@@H]3C[C@@H](NC(=O)C4CCN(Cc5ccc(-n6c(O)nnc6-c6cc(C)c(O)cc6O)cc5)CC4)CN3C)nc3c2CCN(c2cccc4cccc(Cl)c24)C3)C[C@@H]1CC#N [Compound 198, N-((3R,5S)-5-(((4-((S)-4-acryloyl-3-(cyanomethyl)piperazin-1-yl)-7-(8-chloronaphthalen-1-yl)-5,6,7,8-tetrahydropyrido[3,4-d]pyrimidin-2-yl)oxy)methyl)-1-methylpyrrolidin-3-yl)-1-(4-(3-(2,4-dihydroxy-5-methylphenyl)-5-hydroxy-4H-1,2,4-triazol-4-yl)benzyl)piperidine-4-carboxamide, trifluoroacetic acid] | < 100 | 100 to 1000 | 100 to 1000
C=CC(=O)N1CCN(c2nc(OC[C@@H]3C[C@@H](NC(=O)C4CCN(Cc5ccc(-n6c(C(=O)NCC(F)(F)F)nnc6-c6cc(C(C)C)c(O)cc6O)cc5)CC4)CN3C)nc3c2CCN(c2cccc4cccc(Cl)c24)C3)C[C@@H]1CC#N [Compound 200, N-((3R,5S)-5-(((4-((S)-4-acryloyl-3-(cyanomethyl)piperazin-1-yl)-7-(8-chloronaphthalen-1-yl)-5,6,7,8-tetrahydropyrido[3,4-d]pyrimidin-2-yl)oxy)methyl)-1-methylpyrrolidin-3-yl)-1-(4-(3-(2,4-dihydroxy-5-isopropylphenyl)-5-((2,2,2-trifluoroethyl)carbamoyl)-4H-1,2,4-triazol-4-yl)benzyl)piperidine-4-carboxamide] | < 100 | < 100 | < 100
C=CC(=O)N1CCN(c2nc(OC[C@@H]3C[C@@H](NC(=O)C4CCN(Cc5ccc(-n6c(C(=O)NCCN7CCN(C)CC7)nnc6-c6cc(C(C)C)c(O)cc6O)cc5)CC4)CN3C)nc3c2CCN(c2cccc4cccc(Cl)c24)C3)C[C@@H]1CC#N [Compound 201, N-((3R,5S)-5-(((4-((S)-4-acryloyl-3-(cyanomethyl)piperazin-1-yl)-7-(8-chloronaphthalen-1-yl)-5,6,7,8-tetrahydropyrido[3,4-d]pyrimidin-2-yl)oxy)methyl)-1-methylpyrrolidin-3-yl)-1-(4-(3-(2,4-dihydroxy-5-isopropylphenyl)-5-((2-(4-methylpiperazin-1-yl)ethyl)carbamoyl)-4H-1,2,4-triazol-4-yl)benzyl)piperidine-4-carboxamide] | < 100 | > 1000 | 100 to 1000
C=CC(=O)N1CCN(c2nc(OC[C@@H]3CN(C(=O)C4CCN(Cc5ccc(-n6c(O)nnc6-c6cc(C(C)C)c(O)cc6O)cc5)CC4)CCN3C)nc3c2CCN(c2cccc4cccc(Cl)c24)C3)C[C@@H]1CC#N [Compound 202, 2-((S)-1-acryloyl-4-(7-(8-chloronaphthalen-1-yl)-2-(((S)-4-(1-(4-(3-(2,4-dihydroxy-5-isopropylphenyl)-5-hydroxy-4H-1,2,4-triazol-4-yl)benzyl)piperidine-4-carbonyl)-1-methylpiperazin-2-yl)methoxy)-5,6,7,8-tetrahydropyrido[3,4-d]pyrimidin-4-yl)piperazin-2-yl)acetonitrile, trifluoroacetic acid] | < 100 | > 1000 | 100 to 1000
C=CC(=O)N1CCN(c2nc(OCCN3CCN(C4CCN(Cc5ccc(-n6c(O)nnc6-c6cc(C)c(O)cc6O)cc5)CC4)CC3)nc3c2CCN(c2cccc4cccc(Cl)c24)C3)C[C@@H]1CC#N [Compound 267, (S)-2-(1-acryloyl-4-(7-(8-chloronaphthalen-1-yl)-2-(2-(4-(1-(4-(3-(2,4-dihydroxy-5-methylphenyl)-5-hydroxy-4H-1,2,4-triazol-4-yl)benzyl)piperidin-4-yl)piperazin-1-yl)ethoxy)-5,6,7,8-tetrahydropyrido[3,4-d]pyrimidin-4-yl)piperazin-2-yl)acetonitrile] |  | > 1000 | < 100
